The source of these data is ChEMBL document CHEMBL4118200, “Boronic acid inhibitors of the class A β-lactamase KPC-2” (Bioorg Med Chem, 2018).

Structures are written as SMILES. Values after ≈ are worked out from the molar mass of the structure shown.

Assay [1] is described as follows: Inhibition of bacterial AmpC. Details: species or system Bacteria.
Another assay deals with Klebsiella pneumoniae. The settings on record: isolate 342.
Assay [2] has as its target Metallo-beta-lactamase type 2 (Klebsiella pneumoniae) (UniProt C7C422). The conditions noted are these: NCTC 13443.
A further assay has as its system Escherichia coli. Briefly: microbe, parasite or virus in culture. It counts as functional. The conditions noted are these: NCTC 10118, 16 h.
In assay [3] the target is Beta-lactamase (Escherichia coli) (UniProt Q7BB82). The conditions noted are these: G69.
Beta-lactamase (Escherichia coli), sequence (Q7BB82 as listed by the source): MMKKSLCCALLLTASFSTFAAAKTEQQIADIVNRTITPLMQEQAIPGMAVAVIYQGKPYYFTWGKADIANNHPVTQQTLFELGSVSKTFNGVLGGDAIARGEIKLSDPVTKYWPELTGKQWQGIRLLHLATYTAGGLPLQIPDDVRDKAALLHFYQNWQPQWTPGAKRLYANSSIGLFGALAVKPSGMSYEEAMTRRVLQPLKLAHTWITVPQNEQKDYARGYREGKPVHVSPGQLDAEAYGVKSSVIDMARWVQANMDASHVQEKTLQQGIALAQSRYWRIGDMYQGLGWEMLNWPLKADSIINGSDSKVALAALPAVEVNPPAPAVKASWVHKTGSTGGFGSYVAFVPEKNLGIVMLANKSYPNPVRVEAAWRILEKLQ

Metallo-beta-lactamase type 2 (Klebsiella pneumoniae), sequence (C7C422 whole entry): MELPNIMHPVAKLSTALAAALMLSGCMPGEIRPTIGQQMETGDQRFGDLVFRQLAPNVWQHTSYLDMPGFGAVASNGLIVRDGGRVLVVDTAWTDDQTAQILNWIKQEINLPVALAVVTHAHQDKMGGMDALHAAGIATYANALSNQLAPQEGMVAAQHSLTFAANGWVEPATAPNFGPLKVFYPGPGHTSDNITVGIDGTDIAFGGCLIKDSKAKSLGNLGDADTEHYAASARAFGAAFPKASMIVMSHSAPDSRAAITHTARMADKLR
Description for Bacteria: Inhibition of bacterial beta-lactamase KPC2 expressed in Escherichia coli BL21(DE3) assessed as cefotaxime MIC at 50 ug/ml incubated for 16 hrs by broth microdilution method (Rvb = 16 ug/ml)

Usually Ki stands for a measure of affinity in units of concentration, obtained from inhibition or displacement. Lower therefore signals higher affinity. Turning to `Nc1cccc(B(O)O)c1`, the Ki in assay [1] turned out to be 7.1 µM.
Turning to `OB(O)c1ccc(Cn2cc(-c3cccnc3)nn2)cc1`, the MIC is less than 0.03 µg/mL against Bacteria; greater than 32 µg/mL against Klebsiella pneumoniae; greater than 32 µg/mL in assay [2]; no more than 0.03 µg/mL in the assay with Escherichia coli; greater than 32 µg/mL in assay [3].
As for `[N-]=[N+]=NCc1ccc(B(O)O)cc1`, the MIC against Bacteria was less than 0.03 µg/mL; against Klebsiella pneumoniae, greater than 32 µg/mL; in assay [2], greater than 32 µg/mL; against Escherichia coli, no more than 0.03 µg/mL; in assay [3] it was greater than 32 µg/mL.
Regarding `OB(O)c1ccc(Cn2cc(-c3ccccc3)nn2)cc1`, the MIC was less than 0.03 µg/mL against Bacteria; greater than 32 µg/mL with Klebsiella pneumoniae; greater than 32 µg/mL in assay [2]; no more than 0.03 µg/mL in the assay on Escherichia coli; greater than 32 µg/mL in assay [3].
In assay [1], `OB(O)c1cccc(/N=N/c2cc3ccccc3cc2O)c1` had a Ki of 0.3 µM.
As for `OB(O)c1ccc(Cn2cc(-c3ccsc3)nn2)cc1`, the MIC against Bacteria was less than 0.03 µg/mL; against Klebsiella pneumoniae, greater than 32 µg/mL; in assay [2], greater than 32 µg/mL; in the assay with Escherichia coli, no more than 0.03 µg/mL; in assay [3] it was greater than 32 µg/mL.
Turning to `OB(O)c1cccc(Cn2cc(-c3ccccc3)nn2)c1`, the MIC is less than 0.03 µg/mL with Bacteria; greater than 32 µg/mL in the assay on Klebsiella pneumoniae; greater than 32 µg/mL in assay [2]; no more than 0.03 µg/mL with Escherichia coli; greater than 32 µg/mL in assay [3].
In turn, `O=C(O)C/C=C/c1c(B(O)O)sc2ccccc12` displayed a Ki in assay [1] of 0.09 µM.
`OB(O)c1cccc(Cn2cc(-c3ccsc3)nn2)c1`: the MIC against Bacteria was less than 0.03 µg/mL; in the assay with Klebsiella pneumoniae, greater than 32 µg/mL; in assay [2], greater than 32 µg/mL; in the assay on Escherichia coli, no more than 0.03 µg/mL; in assay [3], greater than 32 µg/mL.
As for `O=C(Cc1cccs1)N[C@@H](B(O)O)c1ccccc1`, affinity in assay [1] was put at a Ki of 0.035 µM.
Take `OB(O)c1cccc(Cn2cc(-c3ccccn3)nn2)c1`: the MIC was less than 0.03 µg/mL in the assay on Bacteria; greater than 32 µg/mL in the assay with Klebsiella pneumoniae; greater than 32 µg/mL in assay [2]; no more than 0.03 µg/mL with Escherichia coli; greater than 32 µg/mL in assay [3].
On to `OB(O)c1cccc(Cn2cc(-c3cccnc3)nn2)c1`, for which the MIC is less than 0.03 µg/mL in the assay on Bacteria; greater than 32 µg/mL in the assay with Klebsiella pneumoniae; greater than 32 µg/mL in assay [2]; no more than 0.03 µg/mL with Escherichia coli; greater than 32 µg/mL in assay [3].
As to `COc1ccc(-c2cn(Cc3cccc(B(O)O)c3)nn2)cc1`, the MIC with Bacteria was 0.12 µg/mL (≈ 0.388 µM); with Klebsiella pneumoniae, greater than 32 µg/mL; in assay [2] it was greater than 32 µg/mL; in the assay with Escherichia coli it was no more than 0.03 µg/mL; in assay [3], 32 µg/mL (≈ 104 µM).
For `OB(O)c1cccc(Cn2cc(-c3cccs3)nn2)c1`, the MIC against Bacteria is less than 0.03 µg/mL; in the assay with Klebsiella pneumoniae, greater than 32 µg/mL; in assay [2], greater than 32 µg/mL; in the assay with Escherichia coli, no more than 0.03 µg/mL; in assay [3], greater than 32 µg/mL.
Turning to `[N-]=[N+]=NCc1cccc(B(O)O)c1`, the MIC in the assay with Bacteria is less than 0.03 µg/mL; against Klebsiella pneumoniae it was greater than 32 µg/mL; in assay [2] it was greater than 32 µg/mL; in the assay on Escherichia coli, no more than 0.03 µg/mL; in assay [3] it was 8 µg/mL (≈ 45.2 µM).
`OB(O)c1ccc(Cn2cc(-c3ccccn3)nn2)cc1`: the MIC against Bacteria is less than 0.03 µg/mL; in the assay with Klebsiella pneumoniae it was greater than 32 µg/mL; in assay [2], greater than 32 µg/mL; against Escherichia coli, no more than 0.03 µg/mL; in assay [3] it was greater than 32 µg/mL.
As for `COc1ccc(-c2cn(Cc3ccc(B(O)O)cc3)nn2)cc1`, the MIC in the assay on Bacteria was 0.06 µg/mL (≈ 0.194 µM); against Klebsiella pneumoniae, greater than 32 µg/mL; in assay [2] it was greater than 32 µg/mL; against Escherichia coli, no more than 0.03 µg/mL; in assay [3], greater than 32 µg/mL.
With `OB(O)c1ccc(Cn2cc(-c3cccs3)nn2)cc1`, the MIC with Bacteria is 0.12 µg/mL (≈ 0.421 µM); against Klebsiella pneumoniae it was greater than 32 µg/mL; in assay [2] it was greater than 32 µg/mL; with Escherichia coli, no more than 0.03 µg/mL; in assay [3], greater than 32 µg/mL.
